Counter-ions that a name gives are not always drawn.
Assays:
Assay type in all cases: cell-based, mouse
[1] = tested on: MEFs from OG mice; experiment: Screen for chemical substitutes of Oct4 in OG-MEFs infected with Sox2, Klf4 and c-Myc; settings: OG-MEFs with viral expression of Sox2, Klf4 and c-Myc, no Oct4
Procedure: To identify chemical substitutes of Oct4, MEFs from OG mice were plated at a density of 20,000 cells per well of a 12-well plate and infected with lentiviruses encoding Sox2, Klf4 and c-Myc. After infection, the medium was replaced with LIF-free ESC culture medium. Individual chemicals from small-molecule libraries were added to each well. The medium and chemicals were changed every 4 days. Chemical treatments were continued for 14-20 days or until GFP-positive colonies appeared. Primary hits were selected for further confirmation and optimization.
Small molecules that enable reprogramming in the absence of Oct4 were searched using Oct4 promoter-driven green fluorescent protein (GFP) expression (OG) mouse embryonic fibroblasts (MEFs), with viral expression of Sox2, Klf4, and c-Myc.

[2] = tested on: MEFs; experiment: CiPSC induction from MEFs with small-molecule combinations (no XEN priming); settings: for replacement of DZNep in CiPSC generation: SAH hydrolase inhibitor in combination with VC6TF
Procedure: The initial cells (MEFs, MNFs, MAFs or ADSCs) were seeded at a density of 50,000 cells per well of a 6-well plate or 300,000 cells per 100 mm dish. On the next day (day 0), the original medium was replaced with chemical reprogramming medium containing the small-molecule combinations. The small-molecule combinations-containing medium was changed every 4 days. On day 12, these cells were washed in PBS and digested with 0.25% Trypsin-EDTA (Invitrogen) at 37° C. for 3-5 min. After neutralization, the cell clumps were dissociated into single cells by thorough pipetting. The cells were harvested (300,000-1,000,000 cells per well of a 6-well plate) and replated at a density of 300,000-500,000 cells per well of a 6-well plate in the chemical reprogramming medium containing the small-molecule combinations. DZNep was added to the cell cultures on day 16 or day 20. On day 28-36, the small-molecule combinations including DZNep were removed. Meanwhile, the chemical reprogramming medium was replaced with 2i-medium. After another 8-12 days, 2i-competent, ESC-like and GFP-positive colonies were counted as primary CiPSC colonies. For CiPSC induction from wild-type cells without OG reporter, 2i-competent and ESC-like colonies were counted as primary CiPSC colonies. These CiPSC colonies were picked up for expansion and characterization. Alternatively, CiPSCs could be induced without replating on day 12.

[3] = tested on: MEFs from OG mice; experiment: Screen for small molecules that facilitate late reprogramming (DOX-inducible Oct4 plus VC6T); settings: VC6T plus DOX-induced Oct4 for the first 4-8 days
Procedure: To identify small molecules that facilitate late reprogramming, a doxycycline (DOX)-inducible Oct4 expression screening system was used (Li, et al., Cell Res. 21:196-204 (2011)).
MEFs from OG mice were plated as described above and infected with Fu-tet-hOct4 and FUdeltaGW-rtTA lentiviruses. The induction protocol was carried out as described above.
After infection, the culture medium was replaced with LIF-free ESC culture medium containing VC6T (VPA, CHIR99021, 616452, Tranylcypromine) plus DOX (1 μg/ml). Alternatively, MEFs harboring DOX-inducible Oct4 from Tet-On POUSF1 mouse strain B6; 129-Gt (ROSA)26Sor^tm1(TrtTA*M2)Jae Colla1^tm2(tetO-Pou5f1)Jae/J were used in this screen (Li, et al., Cell Res., 21:196-204 (2011)). These two DOX-inducible systems were only used in this screen, but not in complete chemical reprogramming. Individual chemicals from small-molecule libraries were added to each well. Small molecules were added at different culture time points. 5-aza-C(5-Azacytidine) and DZNep were added from day 8. The medium and chemicals were changed every 4 days; DOX was added only for the first 4-8 days. Chemical treatments were continued for 16-24 days or until GFP-positive colonies appeared. Primary hits were selected for further confirmation and optimization. CiPSC colonies were counted on day 44. […]

[4] = tested on: pluripotency-related genes and XEN marker genes; experiment: Real-time PCR of pluripotency, XEN and MET genes during chemical reprogramming; settings: for expression of XEN marker genes (Sall4, Gata4, Sox17): stage 1, fibroblasts to XEN-like cells; for endogenous expression of Sall4 and Sox2 on withdrawal of the chemical: chemicals withdrawn from VC6TF, after 12 days
Procedure: Total RNA from an entire well of cultured cells was isolated using the RNeasy Plus MiniKit (QIAGEN). For a single colony, RNA was isolated using the RNeasy Micro Kit (QIAGEN). RNA was converted to cDNA using TransScript First-Strand cDNA Synthesis SuperMix (TransGen Biotech). PCR was carried out using Power SYBRR Green PCR Master Mix (Applied Biosystems) and performed on an ABI Prism 7300 Sequence Detection System. The data were analyzed using the delta-delta Ct method.

[5] = tested on: intracellular levels SAH to SAM; experiment: SAM and SAH quantification by HPLC; settings: during chemical reprogramming, relative to MEFs
Procedure: (§1) CAMP was quantified using the Direct cAMP ELISA Kit (Enzo) according to the manufacturer's protocol. For SAM and SAH quantification, cultured cells (1,000,000 cells) were trypsinized and homogenized by ultrasonication in 200 μl PBS. Then 40 μl of 400 mg/ml TCA was added. Cell extracts were incubated on ice for 30 min. After centrifugation at 4° C. (13,000 rpm, 15 min), the supernatants were filtered through a 0.22 μm filter and analyzed by high-performance liquid chromatography (HPLC, Shimadzu) with HILIC columns (Waters).

[6] = tested on: Oct4 promoter; experiment: DNA methylation (bisulfite sequencing) and H3K9 methylation (ChIP) at the Oct4 promoter; settings: presence versus absence of DZNep, day 32
Procedure: Genomic DNA was modified by bisulfite treatment and purified using the MethylCode™ Bisulfite Conversion Kit (Invitrogen) according to the manufacturer's protocol. The amplified fragments were cloned into the pEASY-blunt Vector (Transgene). Ten randomly picked clones from each sample were sequenced. ChIP was performed using the EZ-Magna ChIP A/G Kit (Millipore) according to the manufacturer's protocol. Anti-H3K27me3 (Abcam, ab6002), anti-H3K9me2 (Millipore, 07-441), anti-H3K4me3 (Abcam, ab8580) and anti-H3K9ac (Abcam, ab4441) antibodies were used. Following immunoprecipitation, DNA was analyzed by real-time PCR.

[7] = tested on: cAMP; experiment: Intracellular cAMP quantification (Direct cAMP ELISA); settings: MEF, FSK 10 μM versus DMSO control
Procedure: as §1
The effect of inhibiting adenylate cyclase on the number of colonies generated by VC6TFZ was tested. […] The effect of replacing FSK with the cAMP analog (DBcAMP), alone or in combination with phosphodiesterase inhibitors, IBMX, or the phosphodiesterase inhibitor, rolipram and IBMX, on cell reprograming was also tested. Both DBcAMP and IBMX were used at 50 μM in the combination treatment.

Cc1[nH]c2ccc(O)cc2c1CCN [2-Me-5HT, 2-Methyl-5-hydroxytryptamine hydrochloride]
chemical substitute for Oct4 (iPSC induction) [1]: identified as chemical “substitutes” for Oct4

C[C@H]1O[C@@H](n2cnc3c(N)ncnc32)C[C@@H]1O [2′5′ddAdo, 2′,5′-Dideoxyadenosine]
number of colonies formed by VC6TFZ ([2]; inhibition of adenylate cyclase during VC6TFZ treatment): decreased the number of colonies

Nc1ncn([C@@H]2O[C@H](CO)[C@@H](O)[C@H]2O)c(=O)n1 [5-Azacytidine]
small molecule hit facilitating late reprogramming [3]: identified in this screen

CC1(C)CCC(C)(C)c2cc(C(=O)Nc3ccc(C(=O)O)cc3)ccc21 [AM580, 4-[(5,6,7,8-Tetrahydro-5,5,8,8-tetramethyl-2-naphthalenyl)carboxamido]benzoic acid]
expression of XEN marker genes (Sall4, Gata4, Sox17) [4]: promote the expression of XEN marker genes

Nc1ncnc2c1ncn2C(C=O)OC(C=O)CO (centres unmarked) [Adox, Adenosine, periodate oxidized]
replacement of DZNep in CiPSC generation [2]: useful in replacing DZNep in reprogramming

Cc1cnc(-c2cnc(NCCNc3ccc(C#N)cn3)nc2-c2ccc(Cl)cc2Cl)[nH]1 [CHIR99021, 6-[[2-[[4-(2,4-Dichlorophenyl)-5-(5-methyl-1H-imidazol-2-yl)-2-pyrimidinyl]amino]ethyl]amino]-3-pyridinecarbonitrile]
endogenous expression of Sall4 and Sox2 on withdrawal of the chemical [4]: essential in activating the endogenous expression of Sall4 and Sox2 | increase in the expression of Gata4, Sox17 and EpCAM ([4]; increased concentration of CHIR99021 (20 μM versus 10 μM) in VC6TF, 12 days): up to 10 fold

NC(=O)c1ccc(-c2nc(-c3ccc4c(c3)OCCO4)c(-c3ccccn3)[nH]2)cc1 [D4476, 4-[4-(2,3-Dihydro-1,4-benzodioxin-6-yl)-5-(2-pyridinyl)-1H-imidazol-2-yl]benzamide]
chemical substitute for Oct4 (iPSC induction) [1]: identified as chemical “substitutes” for Oct4

Nc1nccc2c1ncn2[C@@H]1O[C@H](CO)[C@@H](O)[C@H]1O [DZA, 3-Deazaadenosine]
replacement of DZNep in CiPSC generation [2]: useful in replacing DZNep in reprogramming

Nc1nccc2c1ncn2[C@@H]1C=C(CO)[C@@H](O)[C@H]1O [DZNep, 3-deazaneplanocin A]
small molecule hit facilitating late reprogramming [3]: identified in this screen | concentration ratio of SAH to SAM [5]: elevates the concentration ratio of SAH to S-adenosylmethionine (SAM) | DNA methylation and H3K9 methylation at the Oct4 promoter [6]: significantly decreased | Oct4 expression ([4]; after addition of DZNep in the late phase of chemical reprogramming): enhanced significantly

CC(C)N(CCCNC(=O)Nc1ccc(C(C)(C)C)cc1)C[C@H]1O[C@@H](n2ccc3c(N)ncnc32)[C@H](O)[C@@H]1O [EPZ004777, 1-(3-((((2R,3S,4R,5R)-5-(4-amino-7H-pyrrolo[2,3-d]pyrimidin-7-yl)-3,4-dihydroxytetrahydrofuran-2-yl)methyl)(isopropyl)amino)propyl)-3-(4-(tert-butyl)phenyl)urea]
expression of XEN marker genes (Sall4, Gata4, Sox17) [4]: promote the expression of XEN marker genes

C=C[C@@]1(C)CC(=O)[C@]2(O)[C@@]3(C)[C@@H](O)CCC(C)(C)[C@@H]3[C@H](O)[C@H](OC(C)=O)[C@@]2(C)O1 [Forskolin]
chemical substitute for Oct4 (iPSC induction) [1]: identified as chemical “substitutes” for Oct4 | small molecule hit facilitating late reprogramming [3]: identified in this screen | intracellular cAMP level [7]: significantly elevates the CAMP level | endogenous expression of Sall4 and Sox2 on withdrawal of the chemical [4]: essential in activating the endogenous expression of Sall4 and Sox2

Nc1ncnc2c1ncn2[C@@H]1C=C(CO)[C@@H](O)[C@H]1O [NEPA, (−)-Neplanocin A]
replacement of DZNep in CiPSC generation [2]: useful in replacing DZNep in reprogramming

CCCCC[C@H](O)/C=C/[C@H]1[C@H](O)CC(=O)[C@@H]1C/C=C\CCCC(=O)O [Prostaglandin E2]
small molecule hit facilitating late reprogramming [3]: identified in this screen

O=C(O)[C@@H](Cc1c[nH]c2ccccc12)N1C(=O)C2=CCCC=C2C1=O [RG108]
small molecule hit facilitating late reprogramming [3]: identified in this screen

COc1ccc(C2CNC(=O)C2)cc1OC1CCCC1 (centres unmarked) [Rolipram]
small molecule hit facilitating late reprogramming [3]: identified in this screen

C/C(=C\c1ccc(C(=O)O)cc1)c1ccc2c(c1)C(C)(C)CCC2(C)C [TTNPB, 4-[(E)-2-(5,6,7,8-Tetrahydro-5,5,8,8-tetramethyl-2-naphthalenyl)-1-propenyl]benzoic acid]
chemical reprogramming efficiency enhanced, factor ([2]; TTNPB as booster added to the chemical cocktail (C6FZ or VC6TFZ) in MEFs): ≤ 40 | reprogramming frequency ([2]; with TTNPB, comparable to transcription factor-induced reprogramming): up to 0.2%

Cc1cccc(-c2n[nH]cc2-c2ccc3ncccc3n2)n1 [compound 616452, 2-(3-(6-Methylpyridin-2-yl)-1H-pyrazol-4-yl)-1,5-naphthyridine]
endogenous expression of Sall4 and Sox2 on withdrawal of the chemical [4]: essential in activating the endogenous expression of Sall4 and Sox2

CCCC(=O)[O-].[Na+] [sodium butyrate, Sodium butyrate]
small molecule hit facilitating late reprogramming [3]: identified in this screen

From patent US12180509B2, “Methods for reprograming non-pluripotent cells into pluripotent stem cells” (Beihao Stem Cell and Regenerative Medicine Research …, priority 2015, dated 2024)
